“And” between values parts separate entries of the source, which are not always exact repeats. Equal entries are not always repeated. “Also recorded” adds a separate entry of the source.
Experiments:
[1] = system: mouth of subjects using oral tobacco; assay: Snus pouches with camphor, perceived burning in the mouth (2AFC); format: in vivo, human; conditions: snus pouch
Description: A further study was conducted to determine if camphor affected perceived burning in the mouth of subjects using oral tobacco. Participants were given two snus pouch samples to use simultaneously, one in each side of the mouth. One sample was a control pouch with no camphor added and the other contained various concentrations of camphor (2.3, 6, 12, 23, 46, and 69 nanograms, corresponding to […], based on tobacco weight, respectively).
The hand-made test samples were constructed using unflavored tobacco (12% oven volatiles) to prevent any possible interference of the flavor system with the objective of the study. In preparing the pouches, the camphor was dissolved in 95% ethanol, with the control pouches receiving the ethanol only. […]
After two (2) minutes, five (5) minutes, and ten (10) minutes of using the samples, participants were asked to indicate which side of the mouth was burning more. Responses were recorded on paper by the experimenter. […] Following each evaluation, participants were asked to give details regarding where the burning was felt and to provide any open-ended comments regarding their experience, which were recorded on paper by the experimenter. Participants repeated the sensory evaluation procedures an additional six (6) times, with a maximum of two (2) pairs being evaluated each day.

[2] = system: tongues of 18 participants; assay: Camphor in NEOBEE oil carrier pretreatment, burning sensation from nicotine strips; format: in vivo, human; parameters: Difference from control (burning from nicotine): scale not given here
Description: Camphor pretreatment was performed using two taste strips applied bilaterally (blinded, randomized) on the tongues of 18 participants. Test strips had 250 microliters of NEOBEE oil carrier with camphor concentrations of C ranging from 300 ppm to 1800 ppm. Control strips contained 250 microliters of carrier only (NEOBEE Oil). The pretreatment time was about 30 seconds. Participants then removed the taste strips and nicotine strips were placed in treated area. The nicotine was provided in an amount of 730 micrograms in 50 microliters for about 30 seconds. Each nicotine strip was then removed, followed by sensory evaluation of burning immediately, at 30 seconds, and 2 minutes. For sensory evaluation, 2 AFC and sensory irritation intensity ratings were generated.
A repeated measures analysis of variance (ANOVA) model was applied to analyze the data. The model includes terms for study participant, study time and concentration of camphor (see the Table 1). The SAS procedure “PROC MIXED” was used. The p value was for the comparison between each concentration with the control. The chi squared test was used for calculating significance for forced choice values.

nerve fibers = conditions: isolated mouse trachea model, Kichko et al.; cited from earlier work
participants (mouth) = assay: Determination of irritation threshold of camphor solution in the mouth; format: in vivo, human; parameters: key to irritation perceived: Y: the participant felt irritation at the indicated concentration; N: no irritation was felt; conditions: for irritation perceived: 2 ml solution swished 10 seconds
Description: A further study was conducted to determine the threshold at which camphor itself would cause sensory irritation.
Each test used two milliliters (2 ml) of a camphor solution. The camphor was dissolved in ethanol and further diluted in water. Participants received sequentially increasing concentration of camphor. Nine participants received samples including food grade racemic camphor, with concentrations of 200, 300, 400, […] 1000, 2000, 4000, 6000 ppm (corresponding to about […] per sample, respectively).
Participants wore nose clips during evaluation. Each participant sipped the sample, swished it in the mouth for 10 seconds, then spat it out. Each participant then indicated whether irritation was perceived. Between evaluations of each sample, participants rinsed with water and waited for one minute.
The left-most column indicates the participant number of each individual participant.

[3] = Sensory effect of camphor in mineral oil in smokeless tobacco products; format: in vivo
acetylcholine receptors = conditions: by inhibiting acetylcholine receptors, Park et al.; cited from earlier work
[4] = system: tongues of human volunteers; assay: Pre-treatment with camphor (ethanol/water solution on a strip) on sensory irritation from nicotine; format: in vivo; conditions: 25, 50 or 100 ppm camphor on a strip for 30 seconds, then 0.1-0.3% nicotine; immediately and 30 seconds after initial exposure
Source text: FIGS. 1 and 2 show the results of a study on the effect of pre-treatment with camphor on sensory irritation from nicotine. Camphor was applied to tongues of human volunteers prior to application of a nicotine solution. Randomized sides of tongues were selected for application of 20 microliters of 0 ppm, 25 ppm, 50 ppm, or 100 ppm of camphor from an ethanol/water solution on a strip (thus, about […], respectively) for 30 seconds. Then, the subjects sipped, rinsed, then spit 0.1%, 0.2%, or 0.3% of a nicotine solution for a 5 second application. Participants were then asked which side of the tongue has the strongest burning sensation. Responses were collected both immediately (within 5 seconds) (FIG. 1) and after 30 seconds (FIG. 2). Controls received no camphor, and a baseline was established at zero camphor.

CC12CCC(CC1=O)C2(C)C (racemic) [camphor]
time at which the effect on oral burning was strongest ([1]; asked at 2, 5 and 10 minutes): 10 min
quantity of camphor most effective in reducing oral burning ([1]; printed as corresponding to 50 ppm): 12 nanogram
sensory irritation from nicotine versus control ([2]; 600 ppm, 900 ppm and 1200 ppm camphor, immediately, at 30 seconds and at 120 seconds after nicotine): significant reduction in sensory irritation from nicotine
Difference from control (burning from nicotine) ([2]; study time 0 sec, camphor 300 ppm in NEOBEE oil): 4.31
Difference from control (burning from nicotine) ([2]; study time 0 sec, camphor 600 ppm in NEOBEE oil): −24.03
Difference from control (burning from nicotine) ([2]; study time 0 sec, camphor 900 ppm in NEOBEE oil): −22.64
Difference from control (burning from nicotine) ([2]; study time 0 sec, camphor 1200 ppm in NEOBEE oil): −19.99
Difference from control (burning from nicotine) ([2]; study time 0 sec, camphor 1500 ppm in NEOBEE oil): −8.62
Difference from control (burning from nicotine) ([2]; study time 0 sec, camphor 1800 ppm in NEOBEE oil): 7.29
Difference from control (burning from nicotine) ([2]; study time 30 sec, camphor 300 ppm in NEOBEE oil): −1.67
Difference from control (burning from nicotine) ([2]; study time 30 sec, camphor 600 ppm in NEOBEE oil): −18.00
Difference from control (burning from nicotine) ([2]; study time 30 sec, camphor 900 ppm in NEOBEE oil): −19.72
Difference from control (burning from nicotine) ([2]; study time 30 sec, camphor 1200 ppm in NEOBEE oil): −14.30
Difference from control (burning from nicotine) ([2]; study time 30 sec, camphor 1500 ppm in NEOBEE oil): −11.11
Difference from control (burning from nicotine) ([2]; study time 30 sec, camphor 1800 ppm in NEOBEE oil): 5.25
Difference from control (burning from nicotine) ([2]; study time 120 sec, camphor 300 ppm in NEOBEE oil): −2.12
Difference from control (burning from nicotine) ([2]; study time 120 sec, camphor 600 ppm in NEOBEE oil): −13.80
Difference from control (burning from nicotine) ([2]; study time 120 sec, camphor 900 ppm in NEOBEE oil): −17.69
Difference from control (burning from nicotine) ([2]; study time 120 sec, camphor 1200 ppm in NEOBEE oil): −11.93
Difference from control (burning from nicotine) ([2]; study time 120 sec, camphor 1500 ppm in NEOBEE oil): −2.38
Difference from control (burning from nicotine) ([2]; study time 120 sec, camphor 1800 ppm in NEOBEE oil): 2.16
activation of nerve fibers induced by nicotine (nerve fibers): effectively inhibit activation of nerve fibers
irritation perceived (participants (mouth); 200 ppm camphor, one line per participant): Y (3×) and N (6×)
irritation perceived (participants (mouth); 300 ppm camphor, one line per participant): Y (3×) and N (6×)
irritation perceived (participants (mouth); 400 ppm camphor, one line per participant): Y (4×) and N (4×)
irritation perceived (participants (mouth); 500 ppm camphor, one line per participant): N (3×) and Y (3×)
irritation perceived (participants (mouth); 1000 ppm camphor, one line per participant): N and Y (2×)
irritation perceived (participants (mouth); 2000 ppm camphor, one line per participant): Y
irritation perceived (participants (mouth); 4000 ppm camphor, one line per participant): Y
irritation perceived (participants (mouth); 6000 ppm camphor, one line per participant): Y
mean threshold for producing irritation (participants (mouth); n=9): 655 ppm
Notes (sensation described by participant) (participants (mouth); one line per participant, first line given): Very slight tingling at 200,; also recorded: Felt slight tingling at 2000,; also recorded: Felt some tingling at 1000,; also recorded: Tingling at 300, tingling no; also recorded: Slight tingling and burning at; also recorded: No Burning, slight tingling on; also recorded: Some burning at 200, stronger; also recorded: Felt slight tingling at 500,; also recorded: Some burning and stinging at
concentration of camphor that does not exhibit a sensory effect of its own (smell, taste, extensive cooling) [3]: less than 1300 ppm
norepinephrine release from adrenal gland cells (acetylcholine receptors): inhibit norepinephrine release
perceived burning from nicotine after pre-treatment with camphor [4]: significantly reduced perceived burning from nicotine
